In the first data set the test system is HCV replicon. Briefly: microbe, parasite or virus in culture. It is filed as cell-based, hepatitis C virus. The settings on record: Hepatitis C virus, read-out: Replicon IC50 μM.
`CCn1c(-c2ccc(N3CCOC3=O)cc2)c(C#N)c2ccc(OC(C)C)cc21` [Compound 638, 1-ethyl-6-isopropoxy-2-[4-(2-oxo-oxazolidin-3-yl)-phenyl]-1H-indole-3-carbonitrile]: the IC50 was more than 2 µM.
Regarding `CCn1c(-c2ccc([N+](=O)[O-])cc2)c(C#N)c2cc(C(C)=O)c(OC)cc21` [Compound 844, 5-acetyl-1-ethyl-6-methoxy-2-(4-nitro-phenyl)-1H-indole-3-carbonitrile], the IC50 was more than 2 µM.
As to `CCn1c(-c2ccc([N+](=O)[O-])cc2)c(C#N)c2cc(CN3CCOCC3)c(OC)cc21` [Compound 845, 1-ethyl-6-methoxy-5-morpholin-4-ylmethyl-2-(4-nitro-phenyl)-1H-indole-3-carbonitrile], the IC50 is more than 2 µM.
With `CCn1c(-c2ccc(N3CCNC3=O)cc2)c(C#N)c2ccc(OC)cc21` [Compound 771, 1-ethyl-6-methoxy-2-[4-(2-oxo-imidazolidin-1-yl)-phenyl]-1H-indole-3-carbonitrile], the IC50 was less than 0.5 µM.
Take `CCn1c(-c2ccc3oc(=O)[nH]c3c2)c(C#N)c2ccc(OC)cc21` [Compound 332, 1-ethyl-6-methoxy-2-(2-oxo-2,3-dihydro-benzooxazol-5-yl)-1H-indole-3-carbonitrile]: the half-maximal inhibitory concentration (IC50) was more than 2 µM.
With `CCn1cc(-c2nccs2)c2ccc(OC)cc21` [Compound 73, 1-ethyl-6-methoxy-3-thiazol-2-yl-1H-indole], the IC50 was more than 2 µM.

Staying with this data set, now noted: Hepatitis C virus, read-out: Replicon IC50.
As to `CCOC(=O)Nc1cccc(-c2c(C#N)c3ccc(OCCCN4CCCC4)cc3n2CC)c1` [Compound 530, {3-[3-cyano-1-ethyl-6-(3-pyrrolidin-1-yl-propoxy)-1H-indol-2-yl]-phenyl}-carbamic acid ethyl ester], the IC50 was less than 0.5 µM.

The same data set, now with this note: read-out: Replicon IC50.
On to `CCn1cc(-c2ccon2)c2ccc(OC)cc21` [Compound 57, 1-ethyl-3-isoxazol-3-yl-6-methoxy-1-H-indole], for which the IC50 is more than 2 µM.
For “N-(2-chloro-ethyl)-N′-[4-(3-cyano-1-ethyl-6-methoxy-1H-indol-2-yl)phenyl]sulfamide [Compound 724]”, the IC50 was in the range of 0.5 to 2 µM.
Regarding “ethanesulfonic acid [4-(3-cyano-6-difluoromethoxy-1-ethyl-1H-indol-2-yl)-phenyl]-amide [Compound 519]”, the IC50 was less than 0.5 µM.
`C=Cn1c(-c2ccc(NS(=O)(=O)CCCCl)cc2)c(C#N)c2ccc(OC)cc21` [Compound 636]: the IC50 was in the range of 0.5 to 2 µM.

Test system in a further data set: not given
Experiment: not given
Details: not given
`CCNc1ccc(-c2c(C#N)c3ccc(OCC)cc3n2C2CCC2)cc1` [Compound 1239, 1-cyclobutyl-6-ethoxy-2-(4-ethylaminophenyl)-1H-indole-3-carbonitrile] came in with a melting point of 187 to 193 °C.
Same read-out and setting: the figure for `CCn1c(-c2ccc(N3CCCS3(=O)=O)cc2)c(C#N)c2ccc(OC3CC3)cc21` [Compound 1046, 6-cyclopropoxy-2-[4-(1,1-dioxo-1λ^6-isothiazolidin-2-yl)-phenyl]-1-ethyl-1H-indole-3-carbonitrile] is 232 to 234 °C; for `CCOc1ccc2c(C#N)c(-c3ccc(N(CC)CC)cc3)n(C3CCC3)c2c1` [Compound 1217, 1-Cyclobutyl-2-(4-diethylamino-phenyl)-6-ethoxy-1H-indole-3-carbonitrile] it is 135 to 141 °C; for `CCn1c(-c2ccc(NC(=O)OC)cc2)c(C#N)c2ccc(OC(F)F)cc21` [Compound 1130, [4-(3-cyano-6-difluoromethoxy-1-ethyl-1H-indol-2-yl)-phenyl]-carbamic acid methyl ester] it is 177 to 178 °C.
In turn, `CCOc1ccc2c(C#N)c(-c3ccc(N(CC)C(=O)OC4CCCC4)cc3)n(C3CCC3)c2c1` [Compound 1251, [4-(3-cyano-1-cyclobutyl-6-ethoxy-1H-indol-2-yl)-phenyl]-ethyl-carbamic acid cyclopentyl ester] had a melting point of 137 to 142 °C.
Compound `CC(C)OC(=O)Nc1ccc(-c2c(C#N)c3ccc(OCCCn4cncn4)cc3n2C2CCC2)cc1` [Compound 1255, {4-[3-cyano-1-cyclobutyl-6-(3-[1,2,4]triazol-1-yl-propoxy)-1H-indol-2-yl]-phenyl}-carbamic acid isopropyl ester] showed a melting point of 208 °C.
Regarding `COc1ccc2c(C#N)c(-c3ccc(NC(=O)OC(C)C)cc3)n(C3CC3)c2c1` [Compound 1234, [4-(3-cyano-1-cyclopropyl-6-methoxyindol-2-yl)phenyl]carbamic acid isopropyl ester], the melting point is 204 to 205 °C.
On the same count and under the same terms, for `CC(C)OC(=O)Nc1ccc(-c2c(C#N)c3ccc(OCCn4cncn4)cc3n2C2CCC2)cc1` [Compound 1276, {4-[3-cyano-1-cyclobutyl-6-(2-[1,2,4]triazol-1-yl-ethoxy)-1H-indol-2-yl]-phenyl}-carbamic acid isopropyl ester] the value was 214 °C; for `CCOc1ccc2c(C#N)c(-c3ccc(NC(=O)OC(C)C4CC4)cc3)n(C3CCC3)c2c1` (racemic) [Compound 1147, rac-[4-(3-cyano-1-cyclobutyl-6-ethoxy-1H-indol-2-yl)-phenyl]-carbamic acid 1-cyclopropyl-ethyl ester], 154 to 158 °C; for `C=CCn1c(-c2ccc(N3CCCC3=O)cc2)c(C#N)c2ccc(OC)cc21` [Compound 938, 1-allyl-6-methoxy-2-[4-(2-oxopyrrolidin-1-yl)-phenyl]-1H-indole-3-carbonitrile], 147 to 148 °C.
`CCn1c(-c2ccc(NC(=O)C3CC3)cc2)c(C#N)c2ccc(OCCn3ccnc3)cc21` [Compound 1183, cyclopropanecarboxylic acid {4-[3-cyano-1-ethyl-6-(2-imidazol-1-yl-ethoxy)-1H-indol-2-yl]-phenyl}-amide] had a melting point of 202.3 to 205.9 °C.
`CC(OC(=O)Nc1ccc(-c2c(C#N)c3ccc(OCCn4cncn4)cc3n2C2CCC2)cc1)C1CC1` (stereo not drawn) [Compound 1329, {4-[3-cyano-1-cyclobutyl-6-(2-[1,2,4]triazol-1-yl-ethoxy)-1H-indol-2-yl]-phenyl}-carbamic acid 1-cyclopropyl-ethyl ester] gave a melting point of 98 °C.
Regarding `CC(C)NC(=O)Nc1ccc(-c2c(C#N)c3ccc(OCCCn4cncn4)cc3n2C2CCC2)cc1` [Compound 1314, 1-{4-[3-cyano-1-cyclobutyl-6-(3-[1,2,4]triazol-1-yl-propoxy)-1H-indol-2-yl]-phenyl}-3-isopropyl-urea], the melting point was 88 to 90 °C.
Take `CCn1c(-c2ccc(NS(=O)(=O)CC)cc2)c(C#N)c2ccc(OC(F)(F)F)cc21` [Compound 881, ethanesulfonic acid [4-(3-cyano-1-ethyl-6-trifluoromethoxyindol-2-yl)phenyl]amide]: the melting point was in the range of 194 to 195 °C.
On to `CCn1c(-c2ccc(N3CCCS3(=O)=O)cc2)c(C#N)c2ccc(OC(F)(F)F)cc21` [Compound 903, 2-[4-(1,1-dioxidoisothiazolidin-2-yl)phenyl]-1-ethyl-6-(trifluoromethoxy)indole-3-carbonitrile], for which the melting point lay in the range of 230 to 232 °C.
Still for that read-out and setting: for `CCOc1ccc2c(C#N)c(-c3ccc(NC(=O)N4CCOCC4)cc3)n(C3CCC3)c2c1` [Compound 1166, morpholine-4-carboxylic acid [4-(3-cyano-1-cyclobutyl-6-ethoxy-1H-indol-2-yl)-phenyl]-amide] the value was 260 to 266 °C.

These data come from patent US7868037B2 (PTC Therapeutics, Inc., priority 2004, dated 2011).
